Read-outs that look alike come from different tables or passages of the source.
Assays:
[1] = tested on: aorta of the rat; test: Relaxation of rat aortic rings contracted by potassium depolarisation (KCl); type: cell-based; settings: rat aorta rings without endothelium
Experimental: (§1) Male Wistar rats (325-375 g) are anaesthetised i.p. using sodium pentobarbital (30 mg/kg). The thoracic aorta and the mesenteric portal vein are removed. The aorta is dissected into rings 3 mm long and the endothelium is removed mechanically.
(§2) The organs are placed in a 20 ml thermostatically controlled vessel containing a physiological solution composed of (mM): NaCl 112; KCl 5; KH2 PO4 1; MgSO4 1.2; CaCl2 2.5; NaHCO3 25; glucose 11.5; EDTA 0.1; pH: 7.4; 37° C.; 95% O2 +5% CO2.
(§3) The initial force applied is 2 g in the case of the aorta and 0.5 g in the case of the portal vein. The variations in force are measured by a STATHAM sensor connected to a transducer amplifier (GOULD) and are monitored continuously on a GOULD 2400 graphic recorder.
(§4) The experimental protocols are as follows: After a stabilisation period of 90 minutes, the aortic rings are subjected to various tests:
potassium depolarisation:
The preparations are exposed to a 30 mM or 80 mM KCl (and 87 and 37 mM NaCl, respectively) hyperpotassium medium; after 30 minutes' stabilisation of contraction, cumulative concentrations of the product to be tested are added every 15 minutes. The relaxation values obtained allow the IC50 s to be calculated.
(§5) The products are used in a form dissolved in water or a suitable solvent.
(§6) The concentrations expressed refer to the final concentrations in terms of base in the isolated organ baths.

[2] = tested on: anaesthetised dog; test: Haemodynamic study in the anaesthetised dog (vascular resistances), i.v.; type: in vivo
Experimental: A complete haemodynamic study was carried out on mongrel dogs weighing from 25 to 30 kg, which were anaesthetised with sodium pentobarbital 30 mg/kg i.v., intubated and ventilated and subjected to a thoracotomy at the 5th left intercostal space. The measurement of the […] is carried out using electromagnetic rings positioned at the level of the ascending aorta and the circumflex branch of the left coronary artery, respectively, and connected to GOULD SP 2202 electromagnetic flow meters. The aortic pressure is measured by a MILLAR probe introduced via the femoral artery.
The total peripheral vascular resistance values (TPR) and the mean coronary vascular resistance values (CVRM) are calculated by the ratio between the mean aortic pressure and the mean cardiac output and the mean coronary output, respectively. The products tested were injected via the femoral vein in a form dissolved in water or a suitable solvent.
The evolution of the vascular resistances, expressed as percentage variation with respect to the control values, is presented as a function of time in the following Table.

[3] = tested on: conscious renally hypertensive dog; test: Arterial pressure in the conscious renally hypertensive dog; type: in vivo; settings: gastric intubation, 0.1 mg/kg
Experimental: Mongrel dogs weighing from 20 to 25 kg are used. A silastic catheter positioned under anaesthesia (sodium pentobarbital 30 mg/kg i.v.) at the level of the abdominal aorta and left over a prolonged period permits the later measurement of the arterial pressure in the conscious animals. Arterial hypertension is induced by a second intervention under anaesthesia consisting in a constriction of the left renal artery using a clip, which reduces its rate of flow by approximately 70%, the left kidney is enveloped in a latex capsule and the contralateral kidney is left in place.
The systolic and diastolic arterial pressures (PAS and PAD) are measured using a STATHAM P23 pressure sensor connected to the silastic catheter and linked to a GOULD pressure amplifier. The products are tested on the animals, which have become hypertensive, in the conscious state, at least one week after the second intervention. The arterial pressure is monitored continuously on an ES1000 GOULD recorder until 7 hours have elapsed after the treatment and then until 24 hours have elapsed.
The products to be tested are administered via the digestive system, after gastric intubation, in a form dissolved in water or a suitable solvent. The doses administered are expressed in mg of base with respect to body weight.
The representative products of the invention were compared with the reference product (CROMAKALIM). The variations in the systolic and diastolic arterial pressures (PAS and PAD), presented at the most significant times after treatment, are expressed as percentage variation with respect to the control values.

[4] = tested on: aorta of the rat; test: Reactivity of rat aortic rings to 4-aminopyridine (4 AP); type: cell-based; settings: 4 AP 5 mM
Experimental: as §1, §2, §3, §4
reactivity to 4-aminopyridine (4 AP)
The product to be tested, at a given concentration, or its solvent, is incubated in the normal physiological solution 15 minutes before the addition of the 4 AP (5 mM).
The maximum amplitudes of the responses to the 4 AP in the presence of the product or the solvent are compared.
as §5, §6

[5] = tested on: spontaneously hypertensive rat (SHR); test: Arterial pressure in the conscious spontaneously hypertensive rat (SHR), oral; type: in vivo
Experimental: The study is carried out on SHR male rats (Charles River) weighing from 260 g to 330 g and aged from 18 to 20 weeks. A polyethylene catheter is positioned at the level of the abdominal aorta and tunnelised at the level of the neck under anaesthesia (ketamine hydrochloride 150 mg/kg intraperitoneally). The animals, placed in movement-restraining cages, are tested in the conscious state at least 48 hours after intervention. The arterial pressure, measured by a STATHAM P23 pressure sensor connected to the abdominal catheter, is registered on a GOULD 2400 recorder. […] The doses administered are expressed in mg/kg of base.
The results obtained with a certain number of representative products of the invention and a reference product, CROMAKALIM, are grouped in the following Table. The variations in systolic and diastolic arterial pressure (PAS and PAD) presented at the most significant times after treatment are expressed as percentage variation with respect to the control values.

[6] = Rattus norvegicus, 80 mM KCl, read-out: IC50 (M) KCl 80 mM

**Q.** How did the IC50 ([1]; Rattus norvegicus, 30 mM KCl, read-out: IC50 (M) KCl 30 mM) turn out when `CC1(C)Oc2ccc(C#N)cc2[C@@H](N2CCCC2=O)[C@@H]1O` (relative stereo) [CROMAKALIM, reference compound] was run?
**A.** 4.2e-07 M

**Q.** What about the IC50 [1, 6] of the same compound?
**A.** > 0.0001 M

**Q.** What about the “Variation (%) of CVRM after treatment” value ([2]; 10 μg/kg, 1 min) of the same compound?
**A.** -69.0%

**Q.** And the “Variation (%) of TPR after treatment” value ([2]; 10 μg/kg, 1 min)?
**A.** -26.8%

**Q.** What about the “Variation (%) of CVRM after treatment” value ([2]; 10 μg/kg, 10 min) of the same compound?
**A.** -38.1%

**Q.** What about the “Variation (%) of TPR after treatment” value ([2]; 10 μg/kg, 10 min) of the same compound?
**A.** -15.5%

**Q.** What about the “Variation (%) of CVRM after treatment” value ([2]; 10 μg/kg, 30 min) of the same compound?
**A.** -27.4%

**Q.** And the “Variation (%) of TPR after treatment” value ([2]; 10 μg/kg, 30 min)?
**A.** -7.8%

**Q.** What about the “Variation (%) of PAD after treatment” value ([3]; 1 H) of the same compound?
**A.** -23%

**Q.** And the “Variation (%) of PAS after treatment” value ([3]; 1 H)?
**A.** -26%

**Q.** And the “Variation (%) of PAD after treatment” value ([3]; 3 H)?
**A.** -9%

**Q.** What about the “Variation (%) of PAS after treatment” value ([3]; 3 H) of the same compound?
**A.** -9%

**Q.** And the “Variation (%) of PAD after treatment” value ([3]; 7 H)?
**A.** -5%

**Q.** What about the “Variation (%) of PAS after treatment” value ([3]; 7 H) of the same compound?
**A.** +2%

**Q.** And the “Variation (%) of PAD after treatment” value ([3]; 24 H)?
**A.** +18%

**Q.** And the “Variation (%) of PAS after treatment” value ([3]; 24 H)?
**A.** +9%

**Q.** What about the “Variation (%) of PAD after treatment” value ([3]; 30 min) of the same compound?
**A.** -46%

**Q.** What about the “Variation (%) of PAS after treatment” value ([3]; 30 min) of the same compound?
**A.** -50%

**Q.** And the “% inhibition of the response to 4AP” value ([4]; product 10^-5 M)?
**A.** 74%

**Q.** And the “% inhibition of the response to 4AP” value ([4]; product 10^-7 M)?
**A.** 13%

**Q.** And the “Variation (%) of PAD after treatment” value ([5]; 0.3 mg/kg, 1 H)?
**A.** -26 ± 3%

**Q.** And the “Variation (%) of PAS after treatment” value ([5]; 0.3 mg/kg, 1 H)?
**A.** -21 ± 3%

**Q.** What about the “Variation (%) of PAD after treatment” value ([5]; 0.3 mg/kg, 3 H) of the same compound?
**A.** -7 ± 5%

**Q.** What about the “Variation (%) of PAS after treatment” value ([5]; 0.3 mg/kg, 3 H) of the same compound?
**A.** -5 ± 4%

**Q.** What about the “Variation (%) of PAD after treatment” value ([5]; 0.3 mg/kg, 6 H) of the same compound?
**A.** -3 ± 1%

**Q.** And the “Variation (%) of PAS after treatment” value ([5]; 0.3 mg/kg, 6 H)?
**A.** -1 ± 2%

**Q.** What about the “Variation (%) of PAD after treatment” value ([5]; 0.3 mg/kg, 30 min) of the same compound?
**A.** -34 ± 2%

**Q.** And the “Variation (%) of PAS after treatment” value ([5]; 0.3 mg/kg, 30 min)?
**A.** -29 ± 2%

**Q.** And the “Variation (%) of PAD after treatment” value ([5]; 1.0 mg/kg, 1 H)?
**A.** -33 ± 3%

**Q.** And the “Variation (%) of PAS after treatment” value ([5]; 1.0 mg/kg, 1 H)?
**A.** -23 ± 4%

**Q.** And the “Variation (%) of PAD after treatment” value ([5]; 1.0 mg/kg, 3 H)?
**A.** -25 ± 4%

**Q.** What about the “Variation (%) of PAS after treatment” value ([5]; 1.0 mg/kg, 3 H) of the same compound?
**A.** -19 ± 3%

**Q.** What about the “Variation (%) of PAD after treatment” value ([5]; 1.0 mg/kg, 6 H) of the same compound?
**A.** -20 ± 2%

**Q.** What about the “Variation (%) of PAS after treatment” value ([5]; 1.0 mg/kg, 6 H) of the same compound?
**A.** -15 ± 2%

**Q.** What about the “Variation (%) of PAD after treatment” value ([5]; 1.0 mg/kg, 30 min) of the same compound?
**A.** -44 ± 4%

**Q.** And the “Variation (%) of PAS after treatment” value ([5]; 1.0 mg/kg, 30 min)?
**A.** -34 ± 5%

**Q.** How did the IC50 [1, 6] turn out when `CC1(C)Oc2ccc(C#N)cc2C(N2C(=O)CC[C@H]2CO)C1O` (single isomer, unassigned) [Example 1 form A, 3R,4S- or 3S,4R-trans-2,2-dimethyl-3-hydroxy-4-(2-oxo-5S-hydroxymethyl-1-pyrrolidinyl)-6-cyanochroman] was run?
**A.** > 0.0001 M

**Q.** And the IC50 ([1]; 30 mM KCl, listed as Ex. 1 Form A, read-out: IC50 (M) KCl 30 mM)?
**A.** 7.7e-06 M

**Q.** And the “Variation (%) of CVRM after treatment” value ([2]; 300 μg/kg, 1 min)?
**A.** -81.5%

**Q.** And the “Variation (%) of TPR after treatment” value ([2]; 300 μg/kg, 1 min)?
**A.** -41.9%

**Q.** And the “Variation (%) of CVRM after treatment” value ([2]; 300 μg/kg, 10 min)?
**A.** -50.3%

**Q.** What about the “Variation (%) of TPR after treatment” value ([2]; 300 μg/kg, 10 min) of the same compound?
**A.** -17.2%

**Q.** What about the “Variation (%) of CVRM after treatment” value ([2]; 300 μg/kg, 30 min) of the same compound?
**A.** -34.9%

**Q.** What about the “Variation (%) of TPR after treatment” value ([2]; 300 μg/kg, 30 min) of the same compound?
**A.** -12.9%

**Q.** And the “% inhibition of the response to 4AP” value ([4]; product 10^-5 M, listed as Ex. 1 Form A)?
**A.** 35%
